Data reported in paper PMC10069031 (European Journal of Medical Research, 2023).

What was measured:
CCL2 = CCL2 ELISA in CT26 tumor tissue; type: in vivo, mouse; conditions: CT26 tumors
Method: CT26 tumor cells were cultivated in RPMI 1640 with 2 mM L-glutamine (Gibco, Invitrogen GmbH) containing 10% fetal bovine serum (Gibco) at 37 °C and 5% CO2. Cell lines were maintained in culture for no longer than 6 months, and mycoplasma contamination was excluded by enzymatic test (MycoAlert, Lonza) prior to in vivo application. Tumor cells (2 × 10^6) were transplanted subcutaneously into 6- to 8-week-old female BALB/c mice. Control mice were subjected to sham surgery without tumor cell transplantation. Blood and tumor samples were collected from untreated control and tumor-bearing mice on days 4 and 8 (n = 3 mice/group). […] For interim analysis, blood and tumor tissue were collected from each group (n = 3 mice/group) after 7 days of treatment. […] Tumor diameter was measured by caliper and body weight was determined at least twice weekly. Tumor volume was calculated using the formula 0.5 × a × b^2, where a and b are the long and short diameters of the tumor, respectively.
For tissue collection, mice were killed at predetermined time points. […] Tumors were removed, and their weights determined, then divided into three pieces, one of which was snap-frozen, one formalin fixed and paraffin embedded, and one weighed and used for FC analyses. […]

TAM-associated genes = assay: qRT-PCR of TAM-associated genes in CT26 tumors; type: in vivo, mouse; conditions: REG(V1) vs V1, qRT-PCR

## CNC(=O)c1cc(Oc2ccc(NC(=O)Nc3ccc(Cl)c(C(F)(F)F)c3)c(F)c2)ccn1 [REG, Regorafenib]
CCL2
  CCL2 concentrations in tumor lysates vs vehicle controls: a trend toward higher levels
TAM-associated genes
  transcript frequency of Adgre1 (F4/80): significantly reduced
  transcript frequency of Arg1: unchanged
  transcript frequency of CSF1R: significantly reduced
  transcript frequency of Hilpda: unchanged
  transcript frequency of Maf: reduced
  transcript frequency of MafB: unchanged
  transcript frequency of Mgl2: reduced
  transcript frequency of Mrc1 (CD206): significantly reduced
  transcript frequency of Nos2: unchanged
  transcript frequency of VEGFA: unchanged
